# Measured values taken from article PMC5358098 (ACS chemical neuroscience, 2016).
# Legend:
# CB1R [1] = molecular target: CB1R (Homo sapiens, UniProt P21554); test: cell-based; format: cell-based; settings: read-out: Emax (% cAMP inhibition), agonist alone
# CB1R [2] = molecular target: CB1R (Mus musculus, UniProt P47746)
# CB1R (Mus musculus, UniProt P47746), sequence (P47746 whole entry): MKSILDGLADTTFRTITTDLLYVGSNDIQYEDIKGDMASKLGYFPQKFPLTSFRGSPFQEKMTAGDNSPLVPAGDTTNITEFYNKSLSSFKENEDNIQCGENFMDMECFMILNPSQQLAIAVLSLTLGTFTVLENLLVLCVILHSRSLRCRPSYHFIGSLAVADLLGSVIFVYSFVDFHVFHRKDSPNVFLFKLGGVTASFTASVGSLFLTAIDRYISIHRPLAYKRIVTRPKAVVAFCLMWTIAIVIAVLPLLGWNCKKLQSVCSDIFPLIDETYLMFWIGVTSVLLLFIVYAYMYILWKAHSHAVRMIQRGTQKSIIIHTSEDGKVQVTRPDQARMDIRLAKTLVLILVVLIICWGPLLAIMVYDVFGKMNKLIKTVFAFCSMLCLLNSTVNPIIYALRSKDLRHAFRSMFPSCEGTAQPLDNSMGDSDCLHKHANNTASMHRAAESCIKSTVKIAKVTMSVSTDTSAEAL
# CB1R (Homo sapiens, UniProt P21554), sequence (P21554 whole entry): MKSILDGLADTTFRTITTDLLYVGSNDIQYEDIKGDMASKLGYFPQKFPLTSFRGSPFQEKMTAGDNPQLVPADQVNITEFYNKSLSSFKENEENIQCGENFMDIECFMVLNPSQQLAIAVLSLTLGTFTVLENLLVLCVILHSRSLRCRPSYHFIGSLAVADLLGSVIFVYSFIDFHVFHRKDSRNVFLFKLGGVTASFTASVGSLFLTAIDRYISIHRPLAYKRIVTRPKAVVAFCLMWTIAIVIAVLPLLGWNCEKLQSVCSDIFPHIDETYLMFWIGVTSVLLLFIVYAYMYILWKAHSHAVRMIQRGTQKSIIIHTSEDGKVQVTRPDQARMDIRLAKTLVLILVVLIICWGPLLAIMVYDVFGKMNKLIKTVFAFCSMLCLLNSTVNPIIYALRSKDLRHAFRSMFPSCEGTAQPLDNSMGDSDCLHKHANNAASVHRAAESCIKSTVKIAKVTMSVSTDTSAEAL
structure (smiles),measurement,setting,value
"CCCCCCC(C)(C)c1ccc([C@@H]2C[C@H](O)CC[C@H]2CCCO)c(O)c1 [CP55,940, 2-[(1R,2R,5R)-5-hydroxy-2-(3-hydroxypropyl)cyclohexyl]-5-(2-methyloctan-2-yl)phenol]",Emax,CB1R [1],106 ± 11.4%
same,"CB1R internalization, agonist alone",CB1R [2],sustained CB1R internalization beginning at 30 min
